Source: patent publication EP0642343B1, “Acridine carboxamides for the treatment of cancer” (XENOVA LIMITED, priority 1992, dated 1993)

How the values were obtained:
LD = test: Resistance factor, drug-resistant Jurkat leukaemia subline; assay type: cell-based, human; details: LD (from L by exposure to doxorubicin); ratio of IC50 resistant line / parent line
Experimental: (§1) Tumour cell lines were cultured in 96-well plates. Growth of NCI cell lines was assessed using sulpho-rhodamine B staining (Skehan P., et al., J. Natl. Cancer Inst. 1990, 82, 1107-1112), that of the leukaemia lines with (4,5-dimethylthiazole-2-yl)-2,5-diphenyltetrazolium (MTT) staining (Mosmann T., J. Immun. Methods 1983, 65, 55-63) and that of the primary human tumour material by ^3H-thymidine incorporation (Marshall E.S., et al., J. Natl. Cancer Inst. 1992, 84, 341-344). Primary tumour material was cultured in 96-well plates in which the wells were coated with agarose to inhibit selectively the growth of normal cells. (Marshall E.S., et al., J. Natl. Cancer Inst. 1992, 84, 341-344). Primary cultures were incubated at 37°C in sealed perspex boxes containing a humidified atmosphere of 5% CO2 and 5% O2 in nitrogen for 7 days. 5-Methyl-[^3H]-thymidine (20 Ci.mmol^-1; 0.04 µCi per well), thymidine and 5-fluorodeoxyuridine (each at final concentrations of 0.5 µM) were added in medium to cultures (20 µl per well) 24 h before terminating the cultures. Cells were aspirated on to glass fibre filters using a multiple automated sample harvester (LKB Wallac OY Beta Harvester). The filter discs were washed for 15 seconds with water, dried, and the amount of tritium retained quantified by liquid scintillation.
(§2) IC50 values were defined as in Paull K.D., et al., J. Natl. Cancer Inst. 1989, 81:1088-1092, where growth, as indicated by staining or thymidine incorporation, corresponded to 50% of that of the control cultures. […] Variances of DELTA values were expressed as standard deviations in log10 units. Comparison of DELTA values was made using Pearson correlation coefficients. Resistance factors were defined as the ratios of IC50 values between the resistant line and the parent line. Statistical evaluation was performed either with NCI programmes, with RS/1 software (BBN Research Systems, Cambridge, MA, USA), or with Sigmaplot (Jandel Scientific, San Rafael, CA, USA).
(§3) The effect of DACA on the growth of cultured cells was assessed by continuous drug exposure. […] Four multidrug-resistant cell lines, developed from JL and JB1 by in vitro exposure to increasing concentrations of doxorubicin (LD and B1D) or amsacrine (LA and B1A) (Finlay G.J., et al., J. Natl. Cancer Inst. 1990, 82, 662-667, Snow K., et al., Br. J. Cancer 1991, 63, 17-28) were tested.
(§4) DACA was compared with six other drugs including four topo II poisons, doxorubicin, mitozantrone, etopo-side and amsacrine. […]

B1A = test: as above; assay type: cell-based, human; details: B1A (from B1 by exposure to amsacrine); ratio of IC50 resistant line / parent line
Experimental: as §1, §2, §3, §4

B1D = test: as above; assay type: cell-based, human; details: B1D (from B1 by exposure to doxorubicin); ratio of IC50 resistant line / parent line
Experimental: as §1, §2, §3, §4

LA = test: as above; assay type: cell-based, human; details: LA (from L by exposure to amsacrine); ratio of IC50 resistant line / parent line
Experimental: as §1, §2, §3, §4

[1] = tested on: other human leukaemia cell lines; test: Growth inhibition of leukaemia lines, continuous exposure, MTT staining; assay type: cell-based; details: range over other human leukaemia cell lines
Experimental: Tumour cell lines were cultured in 96-well plates. […] Primary cultures were incubated at 37°C in sealed perspex boxes containing a humidified atmosphere of 5% CO2 and 5% O2 in nitrogen for 7 days. 5-Methyl-[^3H]-thymidine (20 Ci.mmol^-1; 0.04 µCi per well), thymidine and 5-fluorodeoxyuridine (each at final concentrations of 0.5 µM) were added in medium to cultures (20 µl per well) 24 h before terminating the cultures.
1989, 81:1088-1092, where growth, as indicated by staining or thymidine incorporation, corresponded to 50% of that of the control cultures.
The effect of DACA on the growth of cultured cells was assessed by continuous drug exposure. […] These values were similar to those of other human leukaemia cell lines, which ranged from 290 to 760 nM (CEM-CCRF, 410 nM; MOLT-4, 290 nM; Daudi, 400 nM; Raji, 370 nM, U937, 590 nM; HL-60, 620 nM; K-562, 760 nM). Four multidrug-resistant cell lines, developed from JL and JB1 by in vitro exposure to increasing concentrations of doxorubicin (LD and B1D) or amsacrine (LA and B1A) (Finlay G.J., et al., J. Natl. Cancer Inst. 1990, 82, 662-667, Snow K., et al., Br. J. Cancer 1991, 63, 17-28) were tested.

[2] = tested on: P388 murine leukaemia (P/ACTD); test: Sensitivity of multidrug resistant P388 subline in vitro; assay type: cell-based; details: P-glycoprotein positive multidrug resistant subline
Experimental: A multidrug resistant subline of P388 murine leukaemia (P/ACTD) was tested for sensitivity to DACA. This line was cross-resistant to actinomycin D, doxo-rubicin, mitoxantrone, etoposide and vincristine. Its resistance to vincristine was overcome by the presence of verapamil (10 µM). It stained for the presence of P-glycoprotein, consistent with the presence of transport-mediated multidrug resistance.

[3] = tested on: human melanoma cell line designated WADH; test: Tumour growth delay, human melanoma xenograft in nude mice; assay type: in vivo, nude (athymic) mice; details: tumours 4-7 mm; ip divided dose 2 x 100 mg/kg at 0 and 60 min, repeated after 7 days
Experimental: Colon 38 carcinoma was obtained from the Mason Research Institute (Worchester, MA, USA) and was grown in BDF1 hosts. Tumour fragments (1 mm^3) were implanted subcutaneously in anaesthetised mice. Tumours had grown to the appropriate size 9 days after implantation. A melanoma tumour line (WADH) was developed in the Cancer Research Laboratory. Tumour cells were grown in culture and 1 x 10^6 cells were implanted intradermally into the flank of nude (C57BI/J genetic background) mice. Mice were grown under sterile surroundings until tumours were of appropriate size.
Tumours were measured 3x (colon 38) or 2x (xeno-graft) weekly with callipers and tumour volumes calculated as 0.52a^2b, where a and b were the minor and major tumour axes. Tumour growth delays were measured at a time when tumour volumes of treated and control animals had increased by 4-fold.
A further experiment was carried out using human melanoma line, implanted subcutaneously in nude (athymic) mice using an inoculation of one million cells of a human melanoma cell line designated WADH. Treatment was started when the tumours were 4-7 mm in diameter. DACA was administered ip as a divided dose (2 x 100 mg/kg body weight at 0 and 60 min) and a second similar administra-tion (2 x 100 mg/kg) was given after 7 days. A growth delay of 30 days was obtained (Figure 6).

[4] = tested on: P388 murine leukaemia (P/ACTD); details: in vitro tests; reported by Schneider et al., Eur. J. Cancer Clin. Oncol. 1988; cited from earlier work

CN(C)CCNC(=O)c1cccc2cc3ccccc3nc12 [DACA, N-[2-(dimethylamino)ethyl]acridine-4-carboxamide] gave a Resistance factors (LD) of 2.5, a Resistance factors (B1A) of 3.9 and a Resistance factors (B1D) of 1.9. For the same molecule, the Resistance factors (LA) was 2.0, the IC50 [1] was 290 to 760 nM and the “sensitivity of P/ACTD line” value [2] was “sensitive”. For the same molecule, the Growth delay [3] was 30 days and the “cross-resistance of P/ACTD cells” value [4] was “no cross-resistance”.
